Assay results from patent US8518892B2, “Methods to treat symptoms of pathophysiology related to body mass” (Board of Supervisors of Louisiana State University and …, priority 2005, dated 2013).

Legend:
[1] = system: phosphorylation of Erk1 in fully differentiated 3T3-L1 adipocytes; test: Erk phosphorylation in 3T3-L1 adipocytes; assay type: cell-based; settings: 1 μg/ml Enho1^34-76, 15 minutes after application
Method: FIG. 11A illustrates the increase in Erk phosphorylation in 3T3-L1 adipocytes 15 minutes after the application of the secreted portion of protein Enho1 (Enho1^34-76; SEQ ID NO:10).
(§1) An experiment was conducted to test the use of a recombinant or synthetic forms of the short secreted polypeptide Enho1^34-76 (SEQ ID NO:10). A study was conducted where the response of adipocytes and hepatocytes, two potential sites of Enho1 action, to synthetic Enho1^34-76 was analyzed with changes in extracellular regulated kinase (ERK) as the measured response. ERK1/2 and p38α are important in the regulation of lipolysis and thermogenesis in adipocytes.
(§2) In addition, a shorter, second peptide was synthesized using amino acids 39 through 76 of SEQ ID NO:2, and called “Enho1^39-76” (SEQ ID NO:11).

[2] = system: phosphorylation of Erk1 in HepG2 cells; test: Erk phosphorylation in HepG2 cells; assay type: cell-based; settings: 1 μg/ml Enho1^34-76, 15 minutes after application
Method: FIG. 11B illustrates the increase in Erk phosphorylation in HepG2 hepatocytes 15 minutes after the application of the secreted protein Enho1 (Enho1^34-76; SEQ ID NO:10).
as §1, §2

Lep^ob/Lep^ob mice = test: Leptin treatment of Lep^ob/Lep^ob mice, hepatic AK009710 (Enho1) mRNA by RealTime PCR; assay type: in vivo, mouse; settings: liver of Lep^ob/Lep^ob mice, 4 injections of 0.5 mg/g leptin over 2 days, vs saline
Method: FIG. 3C illustrates the amount of hepatic AK009710 mRNA expression (given as a percent of expression with saline) in leptin-deficient Lep^ob/Lep^ob mice injected 4 times over 2 days with either saline or leptin (0.5 mg/g).
Quantitative RealTime PCR confirmed the microarray data showing a tendency for a modest reduction in the expression of AK009710 in liver of Mc3rKO (FIG. 3A). […] (FIG. 3C). […] Moreover, AK009710 expression correlated negatively with fasting glucose in diet-induced obese B6 mice (n=13, R^2=0.67, P<0.001) (data not shown).
Oligonucleotide primers targeted to AK009710 mRNA were utilized to measure AK009710 gene expression in liver cDNA from various mouse models of obesity and insulin resistance. Sequences of primers were: sense 5-[…]-3′ (SEQ ID NO:3), antisense 5′-[…]-3′ (SEQ ID NO:4), probe 5′-6FAM-[…]-BHQ-3′ (SEQ ID NO:5). In agreement with the initial microarray result, AK009710 mRNA was down regulated in the liver of Mc3r−/− mice compared to WT mice (by 55%, p<0.05; FIG. 3A). Next was examined the AK009710 liver mRNA expression in two other models of obesity: Mc4r−/− mice and leptin-deficient Lep^ob/Lep^ob mice. AK009710 mRNA was expressed at approximately 10-fold lower levels in both of these models compared to wild-type mice (WT) (FIG. 3B). […]

Q: For “Enho1^34-76: synthetic peptide corresponding to amino acids 34 through 76 of SEQ ID NO:2, the mouse protein; secreted portion of Enho1 (CHSRSADVDSLSESSPNSSPGPCPEKAPPPQKPSHEGSYLLQP; mus sp.)”, which “phosphorylation of Erk1” value [1] is on record?
A: robust increase

Q: And the “phosphorylation of Erk1” value [2]?
A: robust increase

B1: leptin (protein, UniProt P41160 22-167, looked up)
Leptin: VPIQKVQDDTKTLIKTIVTRINDISHTQSVSAKQRVTGLDFIPGLHPILSLSKMDQTLAVYQQVLTSLPSQNVLQIANDLENLRDLLHLLAFSKSCSLPQTSGLQKPESLDGVLEASLYSTEVVALSRLQGSLQDILQQLDVSPEC
notes: adipocytokine, injected into Lep^ob/Lep^ob mice
Q: For B1, which “hepatic Enho1 (AK009710) mRNA expression” value (Lep^ob/Lep^ob mice) is on record?
A: significantly increased
